Laboratory results from patent US5582813A, “Iodine-containing fluorocarbon contrast agents” (Alliance Pharmaceutical Corp., priority 1993, dated 1996).

How the values were obtained:
[1] = In vitro opacity to X-rays of compounds in hexane solution (Philips Tomoscan LX); format: physicochemical; details: 0.34 mol/L in hexane; 120 kV, 175 mA
Experimental: In order to determine the relative radiopacity of the compounds used in the present invention to X-rays, we undertook an in vitro study to compare the radiopacity of the above compound (IA) in relation to the radiopacity of perfluorooctyl bromide.
A solution of Compound IA was prepared having a concentration of 0.34 mol/L in hexane. A second solution of perfluorooctyl bromide (PFOB) with the same concentration in hexane was also prepared. The opacity to X-rays of the respective compounds in the hexane solutions was determined using a Philips Tomoscan LX 120 kV, 175 mA apparatus.
Following the procedure described in Example 1, we also measured the opacity to X-rays of Compound IIIA. As described, a solution of Compound IIIA was prepared at a concentration of 0.34 mol/L in hexane.
We also measured the radiopacity of each of the compositions using the in vitro test described in Example 1, where 0.34 mol/L solutions of the compositions were prepared in hexane and scanned using a Philips Tomoscan LX 120 kV, 175 mA apparatus.

[2] = Toxicity, intraperitoneal injection in mice; format: in vivo; details: mouse, in vivo, ip; mice, intraperitoneal, g/kg animal weight; read-out: tolerance
Text: (§1) Beyond radiopacity and stability, the compounds used in the present invention are biocompatible. They are tolerated in high doses in animals. For example, in intraperitoneal administration in mice, the mice were still alive at the end of the protocol, one month post injection, even after doses of up to 45 g/kg of the iodinated fluorinated compounds used in the present invention had been injected. Further, in intravenous administration to mice of the compounds used in the present invention in emulsified form, the mice lived past the end of the protocol, one month post injection of doses up to 8 g/kg.
(§2) In order to determine the toxicity of Compound IA, we injected mice intraperitoneally with the compound. In the experiment, 10 mice were interperitoneally injected with a dose of about 45 g/kg per animal of Compound IA.
(§3) Compound IIIA was also tested for toxicity, following the procedure described in Example 2. A similar tolerance of greater than 45 g/kg animal weight was observed.
(§4) Each of the composition were intraperitoneally injected into mice at doses of 50 g/kg. All of the mice so injected survived and were alive past the end of the protocol, 30 days post injection.

[3] = system: liver; test: In vivo radiopacity, rabbit liver imaging; parameters: species or system rabbits; details: 0.39 g of Compound IA
Experimental: In order to determine the ability of the compositions of the present invention to operate as effective contrast enhancement agents, we undertook an in vivo study in rabbits to image their livers.
In the study, 3 rabbits were injected with the emulsion of Example 5 at a dose of 3 mL of emulsion per kg of animal, i.e., 2.34 g/kg (4.2 mM of Compound IA), at the rate of 0.5 mL/min.
The radiopacity of the liver and spleen of each rabbit was then measured. The animals were held in a cage and radiopacity was measured using a Philips Tomoscan LX scanner at 120 kV and 175 mA, with continuous 5 mm scans slice with 7 mm intervals. The duration of each scan was 1.2 seconds. These measurements were taken before the injection, then at 24 hours, 48 hours, 7 days, 15 days, and 30 days after the injection.
The results from this study are shown in FIG. 2, which is a bar graph showing the comparison between the radiopacity of the liver (as determined by the increase in Hounsfield units) observed with the emulsion of Example 5 and a PFOB emulsion (Example 6), at 24 hours and 48 hours after injection. The concentration of the emulsion of Example 5 was at a dose of […]. The concentration of the PFOB emulsion was at a dose of 2.7 g/kg body weight (5.4 mM of Perflubron/kg).

[4] = system: mice; test: Toxicity, intraperitoneal injection in mice; format: in vivo; details: 10 mice, about 45 g/kg, one month
Text: as §1, §2, §3, §4

Compound	opacity to X-rays (in words) [1]	MTD [2]	radiopacity relative to PFOB [1]	amount of Perflubron giving equivalent contrast enhancement, relative to Compound IA [3]	survival after intraperitoneal injection [4]
CCCCCCC(I)=CC(F)(F)C(F)(F)C(F)(F)C(F)(F)C(F)(F)C(F)(F)C(F)(F)C(F)(F)F [Compound IIIA, C8 F17 --CH=CI--C6 H13]	A similar opacity was observed for Compound IIIA as was observed for Compound IA	> 45000 mg/kg	–	–	–
CCCCCCC(I)=CC(F)(F)C(F)(F)C(F)(F)C(F)(F)C(F)(F)C(F)(F)F [Compound IA, C6 F13 --CH=CI--C6 H13]	–	–	approximately four	7 times	all animals survived and were thriving, showing no ill effects
